Assay results taken from US5354864A, “3-(9-acridinylamino)-5-hydroxymethylaniline derivatives as anticancer agents” (Sloan-Kettering Institute for Cancer Research, priority 1992, dated 1994).
Like-named read-outs stand apart in the source and are kept apart here.

Tests used:
L1210 tumor = experiment: Chemotherapeutic effects on L1210 tumor bearing BDF^1 mice; type: in vivo, mouse; conditions: day 1, QD × 4 + Day 7, QD × 2; for % Increase in lifespan: 25% or greater indicates therapeutic activity; for Average survival time: control 7.2 days
Description: Table 2 lists typical examples of chemotherapeutic effects of 3-(9-acridinylamino)-5-hydroxymethylaniline derivatives of formula I on L1210 tumor bearing BDF^1 mice in vivo.
^a Female mice, 19-21 grams, inoculated with 10^6 L1210 cells i.p
treatment schedule was day 1, QD × 4 + Day 7, QD × 2, i.p.

[1] = system: mouse leukemia L1210 cells; experiment: In vitro cytotoxicity, growth inhibition of mouse leukemia L1210 cells; type: cell-based
[2] = Lethal doses to BDF^1 mice; type: in vivo; conditions: i.p.
Description: ^b Lethal Doses of these compounds to BDF^1 mice have been

[3] = system: human leukemia HL-60 cells; experiment: In vitro cytotoxicity, growth inhibition of human leukemia HL-60 cells; type: cell-based
DNA [4] = conditions: Wilson et al. 1984; cited from earlier work
L1210 leukemia = conditions: Cain et al., J. Med. Chem. 1975; cited from earlier work
DNA [5] = conditions: Nelson et al. 1984; Pommier et al. 1985; cited from earlier work
experimental tumors = conditions: Corbett et al. 1977; Goldin et al. 1981; cited from earlier work
solid tumors = conditions: Casper et al. 1980; cited from earlier work
topoisomerase II = conditions: Nelson et al. 1984; Pommier et al. 1985; cited from earlier work
[6] = 37° C.; cited from earlier work
[7] = mouse leukemia L1210, read-out: IC50 for Cell growth Inhibition, L1210
[8] = human leukemia HL-60, read-out: IC50 for Cell growth Inhibition, HL60

Structure (SMILES) | % Increase in lifespan (L1210 tumor; 5 mg/kg i.p.) | Average weight change, Day 7 (L1210 tumor; 5 mg/kg i.p.) | Average survival time (L1210 tumor; 5 mg/kg i.p.) | % Increase in lifespan (L1210 tumor; 10 mg/kg i.p.) | Average weight change, Day 7 (L1210 tumor; 10 mg/kg i.p.) | Average survival time (L1210 tumor; 10 mg/kg i.p.) | IC50 [1, 7] | IC50 [3, 8] | % Increase in lifespan (L1210 tumor; 20 mg/kg i.p.) | Average weight change, Day 7 (L1210 tumor; 20 mg/kg i.p.) | Average weight change, Day 11 (L1210 tumor; 20 mg/kg i.p.) | Average survival time (L1210 tumor; 20 mg/kg i.p.) | Lethal dose to BDF^1 mice ([2]; QD Day 1-Day 4, Day 7-Day 8) | also measured
Nc1cc(CO)cc(Nc2c3ccccc3nc3ccccc23)c1 [Ia, 3-(9-acridinylamino)-5-hydroxymethylaniline] | 94% | +1.0 grams | 14.0 days | 108% | -0.5 grams | 15.0 days | 0.026 µM | 0.097 µM | – | – | – | – | – | Average weight change, Day 11 (L1210 tumor; 5 mg/kg i.p.): +2.0 grams; Average weight change, Day 11 (L1210 tumor; 10 mg/kg i.p.): +0.0 grams; Lethal dose to BDF^1 mice ([2]; QD Day 1-Day 4 + Day 7): 20 mg/kg
CC(=O)CCC(=O)Nc1cc(COC(=O)CCC(C)=O)cc(Nc2c3ccccc3nc3ccccc23)c1 [Ib, 3-(9-acridinylamino)-N,O-bis(acetonylacetyl)-5-hydroxymethylaniline] | 25% | +2.0 grams | 9.0 days | 53% | +2.0 grams | 11.0 days | 0.098 µM | 0.003 µM | 94% | -3.0 grams | -4.0 grams | 14.0 days | 50 mg/kg | –
CC(=O)CCC(=O)Nc1cc(CO)cc(Nc2c3ccccc3nc3ccccc23)c1 [Ic, 3-(9-acridinylamino)-5-hydroxymethyl-N-acetonylacetylaniline] | 53% | +2.0 grams | 11.0 days | 25% | +1.5 grams | 9.0 days | 0.073 µM | 0.005 µM | 192% | -1.5 grams | -2.0 grams | 21.0 days | 50 mg/kg | –
O=C(O)CCC(=O)Nc1cc(COC(=O)CCC(=O)O)cc(Nc2c3ccccc3nc3ccccc23)c1 [Id, 3-(9-acridinylamino)-5-succinyloxymethyl-N-succinylaniline] | – | – | – | – | – | – | 2 µM | 0.859 µM | – | – | – | – | – | –
O=C(O)CCC(=O)Nc1cc(CO)cc(Nc2c3ccccc3nc3ccccc23)c1 [Ie, 3-(9-acridinylamino)-5-hydroxymethyl-N-succinylaniline] | – | – | – | – | – | – | 1.07 µM | 0.999 µM | – | – | – | – | – | –
COc1cc(NS(C)(=O)=O)ccc1Nc1c2ccccc2nc2ccccc12 [m-AMSA, 4'-(9-acridinylamino)methanesulfon-m-anisidide] | – | – | – | – | – | – | – | – | – | – | – | – | – | chromosomal aberrations and DNA damage (DNA [4]): induced chromosomal aberrations and DNA damage; activity against the L1210 leukemia (L1210 leukemia): high activity; DNA intercalation (DNA [5]): DNA intercalator; activity against a spectrum of experimental tumors (experimental tumors): high activity; activity against a number of solid tumors during Phase II trials (solid tumors): inactive; IC50 ([1]; Mus musculus, L1210, read-out: IC50 for Cell growth Inhibition, L1210): 0.004 µM; topoisomerase II inhibition (topoisomerase II): topoisomerase II inhibitor; half life in the presence of fresh mouse blood [6]: about 23 minutes; IC50 ([3]; Homo sapiens, HL-60, read-out: IC50 for Cell growth Inhibition, HL60): 0.08 µM
